Data taken from patent US10316371B2, “Screening methods for identifying specific Staphylococcus aureus inhibitors” (TRANA DISCOVERY, INC., priority 2011, dated 2019).
Values after ≈ are worked out from the molar mass of the structure shown.

Key:
Assay type in all cases: cell-based
[1] = tested on: S. aureus strain 29213; assay: Time-kill experiments; conditions: for time-kill activity (cidal / static): 8 hrs; for reduction of bacterial counts / reduction of bacterial counts (killing): by 8 hours
Protocol: Two compounds (#880 and #169) were tested in time-kill assays against S. aureus strain 29213. These compounds were then used to attempt to select for resistant variants by passaging at sub-MIC concentrations for 20 passages.
Twenty mL of MH-II media warmed to 37° C. was seeded with log-phase growth S. aureus strain 29213 at 1×10^6 cfu/mL in 50 mL erlenmeyer shake-flasks. Compound was added at 2× and 4× the MIC value. Negative controls (no drug) and positive drug controls (vancomycin at 2× and 4× the MIC) were included in the experiment. Flasks were shaken at 200 rpm and 37° C. Samples were taken at the times indicated (0, 2, 4, 6, 8 and 24 hrs post inoculation) and bacterial loads were quantified by limiting dilution assay.

[2] = tested on: SA 158 (Staphylococcus aureus 158); assay: MIC; conditions: SA 158, read-out: MIC
Protocol: (§1) The strains included Staphylococcus aureus, Methicillin Resistant (ATCC 33591), Methicillin-Resistant Staphylococcus aureus USA300, Staphylococcus aureus 158, Staphylococcus aureus 22, Staphylococcus aureus 2, Staphylococcus aureus (ATCC 29213), and Staphylococcus aureus 182.
(§2) A series of compounds were evaluated for their activity against drug resistant S. aureus, including MSSA and MRSA strains.

[3] = tested on: SA USA 300 (Methicillin-Resistant Staphylococcus aureus USA300); assay: MIC; conditions: SA USA 300, read-out: MIC
Protocol: as §1, §2

[4] = tested on: SA 182 (Staphylococcus aureus 182); assay: MIC; conditions: SA 182, read-out: MIC
Protocol: as §1, §2

[5] = tested on: SA 29213 (Staphylococcus aureus (ATCC 29213)); assay: MIC; conditions: ATCC29213, SA 29213, read-out: MIC
Protocol: as §1, §2

[6] = tested on: SA 22 (Staphylococcus aureus 22); assay: MIC; conditions: SA 22, read-out: MIC
Protocol: as §1, §2

[7] = tested on: SA 33591 (Staphylococcus aureus, Methicillin Resistant (ATCC 33591)); assay: MIC; conditions: ATCC33591, SA 33591, read-out: MIC
Protocol: as §1, §2

[8] = tested on: SA 2 (Staphylococcus aureus 2); assay: MIC; conditions: SA 2, read-out: MIC
Protocol: as §1, §2

[9] = Mammalian Cell Toxicity; conditions: human, MRC5 cells
[10] = tested on: K. pneumoniae 700603; assay: MIC; conditions: Klebsiella pneumoniae; K. pneumoniae 700603; read-out: MIC
[11] = tested on: E. coli 25922; assay: MIC; conditions: Escherichia coli; E. coli 25922; read-out: MIC
[12] = tested on: S. epidermidis MRSE 01; assay: MIC; conditions: Staphylococcus epidermidis; S. epidermidis MRSE 01; read-out: MIC
Protocol: (§3) The compounds were re-tested against other bacteria, including Staphylococcus epidermidis (ATCC 35984), Staphylococcus epidermidis (MRSE), E. faecium 134529, E. faecium 145494, […], E. faecium 161651, S. pneumoniae 49619, and S. pneumoniae 149389.
as §2

[13] = tested on: S. pneumoniae 149389; assay: MIC; conditions: Streptococcus pneumoniae; S. pneumoniae 149389; read-out: MIC
Protocol: as §3, §2

[14] = tested on: S. epidermidis 35984; assay: MIC; conditions: Staphylococcus epidermidis; S. epidermidis 35984; read-out: MIC
Protocol: as §3, §2

[15] = tested on: E. faecium 134529; assay: MIC; conditions: Enterococcus faecium; E. faecium 134529; read-out: MIC
Protocol: as §3, §2

[16] = tested on: E. faecium 145494; assay: MIC; conditions: Enterococcus faecium; E. faecium 145494; read-out: MIC
Protocol: as §3, §2

[17] = tested on: S. pneumoniae 49619; assay: MIC; conditions: Streptococcus pneumoniae; S. pneumoniae 49619; read-out: MIC
Protocol: as §3, §2

[18] = tested on: E. faecalis 161651; assay: MIC; conditions: Enterococcus faecalis; E. faecalis 161651; read-out: MIC
Protocol: as §3, §2

[19] = tested on: E. faecalis 29212; assay: MIC; conditions: Enterococcus faecalis; E. faecalis 29212; read-out: MIC
Protocol: as §3, §2

[20] = tested on: non-S. aureus bacterial strains (Staph epi, E. faecium, E. faecalis, S. pneumoniae); assay: Re-test against other bacteria; conditions: Gm (+) organisms (e.g. Staph epi, E. faecium and E. faecalis)
Source text: as §3
In some cases, the compounds were as active, or nearly so, against the non-S. aureus bacterial strains. While not wishing to be bound to a particular theory, it is believed that these compounds function by stabilizing or inhibiting the complex between the mRNA Shine-Dalgarno sequence, and the anti-Shine Delgarno sequence in the ribosome, and inhibit protein translation in this manner, rather than by inhibiting the ASL Arg, and the codon encoding arginine (AGA), which is specific to S. aureus.

[21] = tested on: Staphylococcus aureus strains (ATCC 33591, USA300, 158, 22, 2, ATCC 29213, 182); assay: MIC screening of lead compounds against S. aureus strains; conditions: including vancomycin and methicillin resistant strains
Source text: A series of lead compounds identified in the in vitro screening were subjected to in vivo screening, to determine their effectiveness against S. aureus. The strains included Staphylococcus aureus, Methicillin Resistant (ATCC 33591), Methicillin-Resistant Staphylococcus aureus USA300, Staphylococcus aureus 158, Staphylococcus aureus 22, Staphylococcus aureus 2, Staphylococcus aureus (ATCC 29213), and Staphylococcus aureus 182.

[22] = tested on: K. pneumoniae UMM; assay: MIC; conditions: Klebsiella pneumoniae; K. pneumoniae UMM; read-out: MIC

Row | SMILES | reduction of bacterial counts ([1]; 2× the MIC) [log10] | time-kill activity (cidal / static) ([1]; 4× the MIC) | reduction of bacterial counts (killing) ([1]; 4× the MIC) [log10] | MIC [2] [mg/L] | MIC [3] [mg/L] | MIC [4] [mg/L] | MIC [5] [mg/L] | MIC [6] [mg/L] | MIC [7] [mg/L] | MIC [8] [mg/L] | CC50 [9] [mg/L] | MIC [10] [mg/L] | MIC [11] [mg/L] | MIC [12] [mg/L] | MIC [13] [mg/L] | MIC [14] [mg/L] | MIC [15] [mg/L] | MIC [16] [mg/L] | MIC [17] [mg/L] | MIC [18] [mg/L] | further results
1 | Cc1ccc2nc(-c3ccc(NC(=O)CN4CCN(CCO)CC4)cc3)sc2c1 [Compound #169, 2-[4-(2-hydroxyethyl)-1-piperazinyl]-N-[4-(6-methyl-1,3-benzothiazol-2-yl)phenyl]acetamide] | 1 | static activity | 1 | 128 (≈ 312 µM) | 8 (≈ 19.5 µM) | 16 (≈ 39 µM) | 16 (≈ 39 µM) | 16 (≈ 39 µM) | 32 (≈ 77.9 µM) | 8 (≈ 19.5 µM) | < 2 | > 128 | > 128 | 16 (≈ 39 µM) | 128 (≈ 312 µM) | 16 (≈ 39 µM) | 16 (≈ 39 µM) | 16 (≈ 39 µM) | 64 (≈ 156 µM) | 16 (≈ 39 µM) | time-kill activity (cidal / static) ([1]; 2× the MIC): static activity; time-kill result by 24 hrs post treatment ([1]; 2× the MIC, 24 hrs): regrowth of bacteria; MIC [19]: 64 mg/L (≈ 156 µM); spectrum of activity [20]: broad spectrum for Gm (+) organisms; activity on types of S. aureus [21]: showed activity on all types of S. aureus; MIC [22]: > 128 mg/L
2 | Brc1ccc(-c2nc(N3CCNCC3)c3ccccc3n2)cc1 [Compound #880, 2-(4-bromophenyl)-4-(1-piperazinyl)-quinazoline] | 2.5 | rapidly cidal | > 3 | 8 (≈ 21.7 µM) | 8 (≈ 21.7 µM) | 8 (≈ 21.7 µM) | 8 (≈ 21.7 µM) | 8 (≈ 21.7 µM) | 8 (≈ 21.7 µM) | 4 (≈ 10.8 µM) | 2.18 (≈ 5.9 µM) | > 128 | 64 (≈ 173 µM) | 8 (≈ 21.7 µM) | 32 (≈ 86.7 µM) | 8 (≈ 21.7 µM) | 8 (≈ 21.7 µM) | 4 (≈ 10.8 µM) | 32 (≈ 86.7 µM) | 8 (≈ 21.7 µM) | bacterial counts by 24 hrs post treatment ([1]; 4× the MIC, 24 hrs): below detectable levels; MIC [19]: 8 mg/L (≈ 21.7 µM); spectrum of activity [20]: broad spectrum for Gm (+) organisms; activity on types of S. aureus [21]: showed activity on all types of S. aureus; MIC [22]: > 128 mg/L
